Measurements reported in PubChem BioAssay (NCI).
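Method: 48-hour compound exposure of cells in 96-well plates, five concentrations, linear interpolation of endpoints. TGI: concentration producing complete growth inhibition.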

Legend:
Assay in all cases: DTP human tumour cell line panel, 48 h
COLO 205 colon = test system: COLO 205 colon
HCC-2998 colon = test system: HCC-2998 colon
HOP-92 NSCLC = test system: HOP-92 NSCLC
M14 melanoma = test system: M14 melanoma
MDA-MB-231 breast = test system: MDA-MB-231 breast
MDA-N = test system: MDA-N
OVCAR-5 ovarian = test system: OVCAR-5 ovarian
OVCAR-8 ovarian = test system: OVCAR-8 ovarian
RXF 393 renal = test system: RXF 393 renal
SF-539 CNS = test system: SF-539 CNS
SK-MEL-2 melanoma = test system: SK-MEL-2 melanoma
SN12C renal = test system: SN12C renal
UO-31 renal = test system: UO-31 renal

Structure (SMILES)	TGI (COLO 205 colon)	TGI (HCC-2998 colon)	TGI (HOP-92 NSCLC)	TGI (M14 melanoma)	TGI (MDA-MB-231 breast)	TGI (MDA-N)	TGI (OVCAR-5 ovarian)	TGI (OVCAR-8 ovarian)	TGI (RXF 393 renal)	TGI (SF-539 CNS)	TGI (SK-MEL-2 melanoma)	TGI (SN12C renal)	TGI (UO-31 renal)
C=CCN1C(=O)/C(=C/c2ccco2)N=C1SC/C=C/C	> 100 µM	> 100 µM	> 100 µM	> 100 µM	> 100 µM	77.5 µM	> 100 µM	> 100 µM	96.1 µM	> 100 µM	86.4 µM	> 100 µM	> 100 µM
CC(C)Cn1cnc2c(NCC(C)O)nc3ccccc3c21 (stereo unspecified)	> 100 µM	> 100 µM	> 100 µM	> 100 µM	> 100 µM	> 100 µM	> 100 µM	> 100 µM	> 100 µM	> 100 µM	> 100 µM	> 100 µM	> 100 µM
COc1ccc(Nc2nnc(-c3nsc4ccccc34)s2)cc1	> 100 µM	> 100 µM	41.8 µM	> 100 µM	> 100 µM	> 100 µM	> 100 µM	> 100 µM	> 78.9 µM	> 100 µM	> 100 µM	> 100 µM	35 µM
Nc1ncnn2c(C3OC(CO)C(O)C3O)ccc12 (stereo unspecified)	0.762 µM	2.71 µM	0.431 µM	0.413 µM	1.11 µM	0.693 µM	4.54 µM	0.746 µM	0.667 µM	0.403 µM	0.362 µM	2.7 µM	0.494 µM
CCc1n[nH]c(=O)n1/N=C/c1c(O)ccc2ccccc12	> 100 µM	> 100 µM	> 100 µM	> 100 µM	> 100 µM	> 100 µM	> 100 µM	> 100 µM	> 100 µM	> 100 µM	> 100 µM	> 100 µM	> 100 µM
COC1(OC)c2no[n+]([O-])c2CCC1O (stereo unspecified)	> 100 µM	> 100 µM	> 100 µM	> 100 µM	> 100 µM	> 100 µM	> 100 µM	> 100 µM	> 100 µM	> 100 µM	> 100 µM	> 100 µM	> 100 µM
O=S1(=O)N=C(SCc2ccccc2)N(c2ccccc2)c2ccncc21	38.3 µM	> 100 µM	82.7 µM	> 100 µM	> 100 µM	89.6 µM	> 100 µM	> 100 µM	> 100 µM	> 100 µM	> 100 µM	> 100 µM	46.8 µM
